From patent US6682732B1, “Treatment of lesions” (The University of Bath, priority 1998, dated 2004)

Assays:
E. coli = experiment: Effect of peroxynitrite scavenger on bacterial growth, growth curves by absorbance (Test 6(c)); assay type: cell-based
Procedure: E. coli were seeded into nutrient broth at 2.10^7 cell ml^−1 and incubated at 37° C. under atmospheric air conditions (that is, 21% oxygen saturation). Four separate test samples of volume 1 ml were prepared by addition at 1 hour of incubation as follows:
1 Peroxynitrite at concentration 100 μM.
2 Peroxynitrite at 100 μM and quercetin (peroxynitrite scavenger) at 100 μμM.
3 Xanthine oxidase (53.2 μg) and xanthine at 100 μM.
4 Xanthine oxidase (53.2 μg) and NADH at 100 μM.
Corresponding controls were also prepared, and the growth curves generated over time determined by monitoring absorbance.

Lactobacillus casei 6375 = experiment: Bacterial growth rate by optical density, 96 well plate (Tests 6(d), 6(e)); assay type: cell-based; settings: highest concentration
Procedure: (§1) Bacteria were seeded into nutrient broth (NB) and grown over night at 37° C. The culture was then counted and normalised to give a final cell concentration of 1.8×10^7 cells well^−1 into the wells of a 96 well plate in fresh nutrient broth. The optical density of each well was monitored every 15 minutes as a measure of the growth rate of each bacterial species. Growth curves were generated for each species and the maximal rate of growth (logarithmic phase) was measured. Cells were treated to a range of experimental conditions in which the growth rate of cells was related to a control of untreated cells. The results were expressed as a percentage of the growth rate of the control cells.
(§2) (i) At a fixed concentration of hypoxanthine (100 μM) a range of purified XO protein concentrations were added at time 0 minutes. The optical density was followed and the growth rate calculated.
(§3) (ii) The growth rate was also measured in relation to the concentration of hypoxanthine, using 30 μg of XO with cells seeded as described above.

E.coli = experiment: Effect of xanthine oxidase derived species on cell viability at a range of oxygen concentrations (Test 6(b)); assay type: cell-based, Escherichia coli; settings: XO, NADH, NaNO2 system
Procedure: To obtain cells used in this test, the infective bacterial strain Escherichia coli NCTC 86 (E.coli) was cultured on nutrient agar at 37° until colony formation occurred, usually overnight. This stock culture was used for subsequent experiments including sub-culturing in nutrient broth and plated onto agar weekly. Experimental cultures of E.coli were set up overnight in nutrient broth from single colonies on an agar plate. Cells were harvested and counted using a standard curve of known absorbance at 470 nm against viable cell count. Peroxynitrite was generated by the method of Crow et al BIOCHEM. 34 pages 3544 to 3552 (1995). In accordance with that method, a mixture of sodium nitrite and hydrogen peroxide was reacted under acid conditions then immediately quenched by the addition of sodium hydroxide. The concentration of ONOO^− formed was measured using an absorption coefficient of 1670 M^−1 cm^−1 in a spectrophotometer at a wavelength of 303 nm. […]
E.coli were cultured as described above. […] Desired oxygen concentrations were generated by delivery of a mixture of oxygen and nitrogen in appropriate proportions and determined using a Clark type O2 electrode. […] Viable cells formed colonies on the agar and were counted. Viable cell counts were performed in triplicate and the results expressed as a percentage viable count in each case related to a non enzyme control of the same oxygen concentration. […]

S. enteritidis [1] = experiment: as above; assay type: cell-based; settings: XO, NADH, NaNO2 system
Procedure: Aliquots were taken and incubated with a reaction system consisting of bovine Xanthine oxidase (XO) (53.2 μgml^−1), nicotinamide adenine dinucleotide in reduced form (NADH) (300 μM), sodium nitrite, (NaNO2) 1 mM and oxygen at a range of concentrations. […] This reaction was followed at 37° C. for 30 min with mixing before an aliquot was taken and plated onto agar and incubated in a warm room at 37° C. Viable cells formed colonies on the agar and were counted. Viable cell counts were performed in triplicate and the results expressed as a percentage viable count in each case related to a non enzyme control of the same oxygen concentration. […] The range of oxygen tensions used covers those in which XO has previously been considered to be active, namely superoxide generation (21% O2 saturation) and nitric oxide production (0% O2 saturation).

[2] = Nitric oxide release from pure bovine xanthine oxidase with NADH and nitrite under hypoxic conditions (ozone chemiluminescence, Tests 1-3); assay type: biochemical
Procedure: The production of nitric oxide in the following tests and examples was analysed using an ozone chemiluminescence assay in a continuous flow apparatus (Sievers NOA 280) that allows the real time analysis of NO production. The apparatus was modified to allow a constant stream of nitrogen to flow into the reaction chamber. Chemiluminescence data were collected by a data acquisition system; the mean NO produced in parts per billion (ppb) was calculated from readings taken every second and shown as NO ppb/s. Progress curves, of molar production of NO against time, were calculated by taking into account the gas flow and successively integrating the ppb/s curves. […]
(d) Samples of NO were taken from the reaction cell by a needle that was connected to a Sievers Nitric Oxide Analyser (NOA-280 ) and the results were recorded for analysis using a computer.
(e) At time (t) 0 minutes, the NOA-280 started the measurement of NO from the reaction cell. At t=1 minute, the contents of the “substrates” bijou were injected into the reaction cell using a 1 ml syringe and the background NO was measured.
(f) At t=5 minutes, the contents of the “milk” bijou were injected into the reaction cell using a 1 ml syringe and the release of NO was monitored for a further 20 minutes. […]

[3] = system: Staphylococcus aureus 6751; experiment: Bacterial growth rate by optical density, 96 well plate (Tests 6(d), 6(e)); assay type: cell-based
Procedure: as §1, §2, §3

Straphylococcu aureus = experiment: Incubation of Gram positive bacteria with SIN-1, growth; assay type: cell-based
Escherichia coli NCTC 86 = experiment: Peroxynitrite effect on cell viability, colony count (Test 6(a)); assay type: cell-based; settings: E. coli; 100 μM to 0.01 μM; FIG. 1
Procedure: To obtain cells used in this test, the infective bacterial strain Escherichia coli NCTC 86 (E.coli) was cultured on nutrient agar at 37° until colony formation occurred, usually overnight. This stock culture was used for subsequent experiments including sub-culturing in nutrient broth and plated onto agar weekly. Experimental cultures of E.coli were set up overnight in nutrient broth from single colonies on an agar plate. Cells were harvested and counted using a standard curve of known absorbance at 470 nm against viable cell count. Peroxynitrite was generated by the method of Crow et al BIOCHEM. 34 pages 3544 to 3552 (1995). In accordance with that method, a mixture of sodium nitrite and hydrogen peroxide was reacted under acid conditions then immediately quenched by the addition of sodium hydroxide. The concentration of ONOO^− formed was measured using an absorption coefficient of 1670 M^−1 cm^−1 in a spectrophotometer at a wavelength of 303 nm. Solutions of different concentrations for use in (a) below were obtained by dilution of the product solution using PBS.
Cells cultured as described above were diluted to suitable working concentrations (10^4-10^5 Cells Ml^−1) in sterile phosphate buffered saline (PBS). […] Viable cells formed colonies on the agar and were counted. […]

S. enteritidis [4] = experiment: as above; assay type: cell-based
Procedure: Cells cultured as described above were diluted to suitable working concentrations (10^4-10^5 Cells Ml^−1) in sterile phosphate buffered saline (PBS). ONOO^− at a range of concentrations from 100 μM to 0.01 μM was added as a bolus dose to cells and incubated at room temperature for ten minutes. Aliquots were taken from the cell cultures and plated on to nutrient agar and incubated in a warm room at 37° C. overnight. Viable cells formed colonies on the agar and were counted. The number of colonies formed was related to an untreated control and a graph of the results is shown in FIG. 1, which illustrates the effect of ONOO^− on cell viability.

In the case of O=c1c(O)c(-c2ccc(O)c(O)c2)oc2cc(O)cc(O)c12 [quercetin], the “effect of scavenger on peroxynitrite killing” value (E. coli; sample (2): peroxynitrite 100 μM and quercetin 100 μμM) is reported as “clear effect in reducing killing”.
With O=c1[nH]c(=O)c2c[nH]nc2[nH]1 [Oxypurinol] the “effect on growth rate when added alone” value (Lactobacillus casei 6375) was “no effect on growth rate”.
For “XOR: Bovine xanthine oxidase (XOR), Biozyme, Blaenavon, UK; 10.7 mg/ml, batch 104AX”, the “killing at oxygen concentrations of about 21%” value (E.coli) was “about 5%”, the “killing at oxygen concentrations of about 21%” value (S. enteritidis [1]) was “about 10%” and the “optimum pH for the production of NO from XOR” value [2] was ~5.5 pH. The “growth inhibition by XO” value ([3]; hypoxanthine 100 μM, compared with Lactobacillus, FIG. 3) was “less marked growth inhibition”.
For N=c1c[n+](N2CCOCC2)[n-]o1 [SIN-1, 3-morpholinosydnonimine], the “growth on incubation with SIN-1” value (Straphylococcu aureus) was “reduced growth in dependence on the amount of added SIN-1”.
With O=NOO [Peroxynitrite] the “killing (growth curves)” value (E. coli; sample (1): peroxynitrite 100 μM added at 1 hour, 21% oxygen saturation) was “strong killing”, the “effect on cell viability (viable count)” value (Escherichia coli NCTC 86) was “profound inhibitory effect” and the effect on viability (S. enteritidis [4]) was “reduce viability”.
In the case of OO [H2O2, hydrogen peroxide], the “growth inhibition in the presence of H2O2” value ([3]; S. aureus, concentration ranges used) is reported as “very limited”.
